≈ marks a conversion by molar mass, not a printed value. Where two headings read alike, the source gives them in different places.
Columns and labels:
[1] = test system: Mycobacterium tuberculosis TB H3 Rv; test: Antituberculotic action, minimum inhibitory concentration in a plate test in vitro; type: cell-based; details: M. tuberculosis TB H3 Rv; for Antituberculotic action, MIC (minimum inhibitory concentration): plate test in vitro; for MIC: Mycobacterium tuberculosis, TBH3RV, read-out: Antituberculotic action, MIC (minimum inhibitory concentration), plate test in vitro
Excerpt: (§1) (2) Test organism: Mycobacterium tuberculosis TB H3 Rv
(3) Minimum inhibitory concentration in a plate test in vitro.

[2] = test system: Mycobacterium tuberculosis TB H3 Rv; test: Antituberculotic action, in vivo test (mice), administration p.o.; design: species or system Mycobacterium tuberculosis; mice; details: for ED50: Mycobacterium tuberculosis, TBH3RV, po
Excerpt: as §1
(4) In vivo test (mice); administration p.o.

Pharmacokinetics in mice = type: in vivo; details: for half-life / Cmax: mouse; for half-life: read-out: t/2 (half-life period of excretion) (converted); for Cmax / Cmax (highest concentration of the active ingredient in the blood plasma): blood plasma; for Cmax: read-out: Cmax (highest concentration of the active ingredient in the blood plasma)
Excerpt: (§2) (5) Half-life period of excretion (in hours).
(§3) (6) Highest concentration of the active ingredient in the blood plasma.

Pharmacokinetics in rats = type: in vivo; details: for half-life / Cmax: rat; for half-life: in vivo, read-out: t/2 (half-life period of excretion) (converted); for Cmax / Cmax (highest concentration of the active ingredient in the blood plasma): blood plasma; for Cmax: read-out: Cmax (highest concentration of the active ingredient in the blood plasma)
Excerpt: as §2, §3

tuberculosis infections = details: prior art, U.S. Pat. No. 3,342,810; cited from earlier work
[3] = prior art statement, in some cases; cited from earlier work
[4] = in vivo, mice, p.o., read-out: Antituberculotic action, ED50

CCC1CCC2CN(N=Cc3c4c(O)c5c(O)c(C)c6c(c5c3O)C(=O)[C@@](C)(O/C=C/[C@H](OC)[C@@H](C)[C@@H](OC(C)=O)[C@H](C)[C@H](O)[C@H](C)[C@@H](O)[C@@H](C)/C=C/C=C(/C)C(=O)N4)O6)CCN2C1 (single isomer, unassigned) [Example 4 Isomer A, hydrazone of 3-formylrifamycin SV with 3-amino-7-ethylperhydro-1H-pyrido[1,2-a]pyrazine]
Antituberculotic action, MIC (minimum inhibitory concentration) ([1]; listed as 4 Isomer A): 0.01 µg/mL | ED50 [2, 4]: 0.8 mg/kg | half-life (Pharmacokinetics in mice; in vivo): 55.1 h | Cmax (Pharmacokinetics in mice; plasma): 29500 ng/mL

CCC1CCC2CN(N=Cc3c4c(O)c5c(O)c(C)c6c(c5c3O)C(=O)[C@@](C)(O/C=C/[C@H](OC)[C@@H](C)[C@@H](OC(C)=O)[C@H](C)[C@H](O)[C@H](C)[C@@H](O)[C@@H](C)/C=C/C=C(/C)C(=O)N4)O6)CCN2C1 (single isomer, unassigned) [Example 4 Isomer B, hydrazone of 3-formylrifamycin SV with 3-amino-7-ethylperhydro-1H-pyrido[1,2-a]pyrazine]
Antituberculotic action, MIC (minimum inhibitory concentration) ([1]; listed as 4 Isomer B): 0.03 µg/mL | Antituberculotic action, ED50 ([2]; in vivo, mice, p.o.): 1 mg/kg | t/2 (half-life period of excretion) (Pharmacokinetics in mice): 44.6 h | Cmax (highest concentration of the active ingredient in the blood plasma) (Pharmacokinetics in mice): 26400 ng/mL

COC1C=COC2(C)Oc3c(C)c(O)c4c(O)c(c(C=NN5CC6CCCCN6CC5C)c(O)c4c3C2=O)NC(=O)C(C)=CC=CC(C)C(O)C(C)C(O)C(C)C(OC(C)=O)C1C (single isomer, unassigned) [Example 5 Isomer A, hydrazone of 3-formylrifamycin SV with 3-amino-2-methylperhydro-1H-pyrido[1,2-a]pyrazine]
Antituberculotic action, MIC (minimum inhibitory concentration) ([1]; listed as 5 Isomer A): 0.2 µg/mL | ED50 [2, 4]: 3 mg/kg | Cmax (highest concentration of the active ingredient in the blood plasma) (Pharmacokinetics in mice; listed as 5 Isomer A): 15000 ng/mL | t/2 (half-life period of excretion) (Pharmacokinetics in mice; listed as 5 Isomer A): 69.3 h | half-life (Pharmacokinetics in rats): 58.5 h | Cmax (Pharmacokinetics in rats; plasma): 19700 ng/mL

COC1C=COC2(C)Oc3c(C)c(O)c4c(O)c(c(C=NN5CC6CCCCN6CC5C)c(O)c4c3C2=O)NC(=O)C(C)=CC=CC(C)C(O)C(C)C(O)C(C)C(OC(C)=O)C1C (single isomer, unassigned) [Example 5 Isomer B, hydrazone of 3-formylrifamycin SV with 3-amino-2-methylperhydro-1H-pyrido[1,2-a]pyrazine]
Antituberculotic action, MIC (minimum inhibitory concentration) ([1]; listed as 5 Isomer B): 0.4 µg/mL | Antituberculotic action, ED50 ([2]; in vivo, mice, p.o., listed as 5 Isomer B): 2 mg/kg | Cmax (highest concentration of the active ingredient in the blood plasma) (Pharmacokinetics in mice; listed as 5 Isomer B): 38800 ng/mL | t/2 (half-life period of excretion) (Pharmacokinetics in mice; listed as 5 Isomer B): 66 h | t/2 (half-life period of excretion) (Pharmacokinetics in rats): 44.7 h | Cmax (highest concentration of the active ingredient in the blood plasma) (Pharmacokinetics in rats): 16400 ng/mL

COC1C=COC2(C)Oc3c(C)c(O)c4c(O)c(c(C=NN5CC6CCCCN6CC5C)c(O)c4c3C2=O)NC(=O)C(C)=CC=CC(C)C(O)C(C)C(O)C(C)C(OC(C)=O)C1C (single isomer, unassigned) [Example 5 Isomer C, hydrazone of 3-formylrifamycin SV with 3-amino-2-methylperhydro-1H-pyrido[1,2-a]pyrazine]
Antituberculotic action, MIC (minimum inhibitory concentration) ([1]; listed as 5 Isomer C): 0.06 µg/mL | Antituberculotic action, ED50 ([2]; in vivo, mice, p.o., listed as 5 Isomer C): 3 mg/kg | Cmax (highest concentration of the active ingredient in the blood plasma) (Pharmacokinetics in mice; listed as 5 Isomer C): 23700 ng/mL | t/2 (half-life period of excretion) (Pharmacokinetics in mice; listed as 5 Isomer C): 15 h

COC1C=COC2(C)Oc3c(C)c(O)c4c(O)c(c(C=NN5CC6CCCCN6CC5C)c(O)c4c3C2=O)NC(=O)C(C)=CC=CC(C)C(O)C(C)C(O)C(C)C(OC(C)=O)C1C (single isomer, unassigned) [Example 5 Isomer D, hydrazone of 3-formylrifamycin SV with 3-amino-2-methylperhydro-1H-pyrido[1,2-a]pyrazine]
Antituberculotic action, MIC (minimum inhibitory concentration) ([1]; listed as 5 Isomer D): 0.06 µg/mL | Antituberculotic action, ED50 ([2]; in vivo, mice, p.o., listed as 5 Isomer D): 3 mg/kg | Cmax (highest concentration of the active ingredient in the blood plasma) (Pharmacokinetics in mice; listed as 5 Isomer D): 33600 ng/mL | t/2 (half-life period of excretion) (Pharmacokinetics in mice; listed as 5 Isomer D): 25.1 h

CO[C@H]1/C=C/O[C@@]2(C)Oc3c(C)c(O)c4c(O)c(c(C=NN5CCN6C(CCC7CCCCC76)C5)c(O)c4c3C2=O)NC(=O)/C(C)=C\C=C\[C@H](C)[C@H](O)[C@@H](C)[C@@H](O)[C@@H](C)[C@H](OC(C)=O)[C@@H]1C (single isomer, unassigned) [Example 6 Isomer A, hydrazone of 3-formylrifamycin SV with 3-aminoperhydro-1H-pyrazino[1,2-a]quinoline]
Antituberculotic action, MIC (minimum inhibitory concentration) ([1]; listed as 6 Isomer A): 0.03 µg/mL | Cmax (Pharmacokinetics in mice; in vivo): 56300 ng/mL | half-life (Pharmacokinetics in mice; in vivo): 33.4 h

CO[C@H]1/C=C/O[C@@]2(C)Oc3c(C)c(O)c4c(O)c(c(C=NN5CCN6C(CCC7CCCCC76)C5)c(O)c4c3C2=O)NC(=O)/C(C)=C\C=C\[C@H](C)[C@H](O)[C@@H](C)[C@@H](O)[C@@H](C)[C@H](OC(C)=O)[C@@H]1C (single isomer, unassigned) [Example 6 Isomer B, hydrazone of 3-formylrifamycin SV with 3-aminoperhydro-1H-pyrazino[1,2-a]quinoline]
Antituberculotic action, MIC (minimum inhibitory concentration) ([1]; listed as 6 Isomer B): 0.007 µg/mL | t/2 (half-life period of excretion) (Pharmacokinetics in mice): 40.9 h | Cmax (highest concentration of the active ingredient in the blood plasma) (Pharmacokinetics in mice): 34000 ng/mL

COC1C=COC2(C)Oc3c(C)c(O)c4c(O)c(c(C=NN5CCN6CCCCC6C5)c(O)c4c3C2=O)NC(=O)C(C)=CC=CC(C)C(O)C(C)C(O)C(C)C(OC(C)=O)C1C (centres unmarked) [Example 1]
Antituberculotic action, MIC (minimum inhibitory concentration) [1]: 0.03 µg/mL | Antituberculotic action, ED50 ([2]; in vivo, mice, p.o.): 0.8 mg/kg | t/2 (half-life period of excretion) (Pharmacokinetics in mice): 20 h | Cmax (highest concentration of the active ingredient in the blood plasma) (Pharmacokinetics in mice): 27300 ng/mL | t/2 (half-life period of excretion) (Pharmacokinetics in rats): 17.0 h | Cmax (highest concentration of the active ingredient in the blood plasma) (Pharmacokinetics in rats): 24500 ng/mL

CO[C@H]1/C=C/O[C@@]2(C)Oc3c(C)c(O)c4c(O)c(c(C=NN5CCN6CCCC6C5)c(O)c4c3C2=O)NC(=O)/C(C)=C\C=C\[C@H](C)[C@H](O)[C@@H](C)[C@@H](O)[C@@H](C)[C@H](OC(C)=O)[C@@H]1C (some centres unmarked) [Example 2, hydrazone of 3-formylrifamycin SV with 3-aminoperhydropyrrolo[1,2-a]pyrazine]
MIC [1]: 0.1 µg/mL (≈ 0.118 µM) | ED50 [2, 4]: 2.5 mg/kg | half-life (Pharmacokinetics in mice; in vivo): 9.1 h | Cmax (Pharmacokinetics in mice; plasma): 57700 ng/mL | half-life (Pharmacokinetics in rats): 13.2 h | Cmax (Pharmacokinetics in rats; plasma): 11600 ng/mL

CO[C@H]1/C=C/O[C@@]2(C)Oc3c(C)c(O)c4c(O)c(c(C=NN5CCN6C(C)CCCC6C5)c(O)c4c3C2=O)NC(=O)/C(C)=C\C=C\[C@H](C)[C@H](O)[C@@H](C)[C@@H](O)[C@@H](C)[C@H](OC(C)=O)[C@@H]1C (some centres unmarked) [Example 3, hydrazone of 3-formylrifamycin SV with 3-amino-8-methylperhydro-1H-pyrido[1,2-a]pyrazine]
MIC [1]: 0.4 µg/mL (≈ 0.456 µM) | ED50 ([2]; read-out: Antituberculotic action, ED50, in vivo, mice, p.o.): 1 mg/kg | half-life (Pharmacokinetics in mice; in vivo): 14 h | Cmax (Pharmacokinetics in mice; plasma): 22600 ng/mL

CO[C@H]1/C=C/O[C@@]2(C)Oc3c(C)c(O)c4c(O)c(c(C=NN5CCN6c7ccccc7CCC6C5)c(O)c4c3C2=O)NC(=O)/C(C)=C\C=C\[C@H](C)[C@H](O)[C@@H](C)[C@@H](O)[C@@H](C)[C@H](OC(C)=O)[C@@H]1C (some centres unmarked) [Example 7, hydrazone of 3-formylrifamycin SV with 3-amino-2,3,4,4a,5,6-hexahydro-1H-pyrazino[1,2-a]quinoline]
MIC [1]: 0.06 µg/mL (≈ 0.0659 µM) | ED50 [2, 4]: 4.5 mg/kg | half-life (Pharmacokinetics in mice; in vivo): 32.2 h | Cmax (Pharmacokinetics in mice; plasma): 24000 ng/mL

CO[C@H]1/C=C/O[C@@]2(C)Oc3c(C)c(O)c4c(O)c(c(C=NN5CCN6CCSCC6C5)c(O)c4c3C2=O)NC(=O)/C(C)=C\C=C\[C@H](C)[C@H](O)[C@@H](C)[C@@H](O)[C@@H](C)[C@H](OC(C)=O)[C@@H]1C (some centres unmarked) [Example 8, hydrazone of 3-formylrifamycin SV with 6-aminoperhydropyrazolo[2,1-c]-p-thiazine]
MIC [1]: 0.2 µg/mL (≈ 0.227 µM) | ED50 [2, 4]: 8 mg/kg | half-life (Pharmacokinetics in mice; in vivo): 8.9 h | Cmax (Pharmacokinetics in mice; plasma): 72000 ng/mL

COC1C=COC2(C)Oc3c(C)c(O)c4c(O)c(c(C=NN5CCN6CCN(C)CC6C5)c(O)c4c3C2=O)NC(=O)C(C)=CC=CC(C)C(O)C(C)C(O)C(C)C(OC(C)=O)C1C (centres unmarked) [Example 9, hydrazone of 3-formylrifamycin SV with 3-amino-6-methylperhydro-1H-pyrazino[1,2-a]pyrazine]
Antituberculotic action, MIC (minimum inhibitory concentration) [1]: 0.1 µg/mL

CO[C@H]1/C=C/O[C@@]2(C)Oc3c(C)c(O)c4c(O)c(c(/C=N/N5CCN(C)CC5)c(O)c4c3C2=O)NC(=O)/C(C)=C\C=C\[C@H](C)[C@H](O)[C@@H](C)[C@@H](O)[C@@H](C)[C@H](OC(C)=O)[C@@H]1C [Rifampicin, hydrazone of 3-formylrifamycin SV with 1-amino-4-methylpiperazine, reference compound]
MIC [1]: 0.03 µg/mL (≈ 0.0365 µM) | ED50 [2, 4]: 5.9 mg/kg | Cmax (Pharmacokinetics in mice; plasma): 24800 ng/mL | Cmax (Pharmacokinetics in rats): 13900 ng/mL | antituberculotic activity (tuberculosis infections): excellent antituberculotic activity | dwell time in the organism [3]: relatively short dwell time in the organism

Source: US4551450A, “Rifamycin hydrazones, pharmaceutical compositions containing them and their use” (Ciba-Geigy Corporation, priority 1984, dated 1985)
